Counter-ions that a name gives are not always drawn.
Test system: patients with Alzheimer's type dementia
Assay: Case reports, Mild Cognitive Impairment (MCI) and Dementia (Example 1)
Assay type: in vivo, human
Details: Patient 1B, 7 year history of Alzheimer's type dementia
Source text: Patient 1A was an elderly person with history of impairment of cognitive function. Presumptive diagnosis of possible dementia of Alzheimers type.
Patient 1B was an elderly retired person with a 7 year history of Alzheimer's type dementia treated with the cholinesterase inhibitor Donepezil. […] Their cognitive function has gradually deteriorated since this time. […] Their reading was more fluent being better able to follow the meaning of the text. There was also improvement in their Stroop Test particularly in part three, the more cognitively demanding where their accuracy improved from 50 to 90%.

| Compound | subjective cognitive functioning and ADAS-cog |
| --- | --- |
| COc1cc2c(cc1OC)C(=O)C(CC1CCN(Cc3ccccc3)CC1)C2 (stereo not shown) [Donepezil] | significant improvement in their subjective cognitive functioning |

Test system: patients with autism / ASD / communication disorder
Assay: Case reports, Autism and other Pervasive Development Disorders (Example 6)
Assay type: in vivo, human
Details: Patient 6, ASD; 50 mg daily
Source text: Patient 6A: Adult, diagnosed in childhood with autism and ADHD. A long history of behavioural disturbance with frequent episodes of violence despite treatment with high-dose antipsychotic medication. […] The high-dose antipsychotic medication has been reduced without any associated loss of recent benefit. […] A history of behavioural disturbance and educational impairment. […] Patient 6C was an adult, diagnosed in childhood with autism and ADHD with a history of behavioural disturbance and educational impairment. […] Patient 6D: Adult, diagnosed in childhood with autism, ADHD and antisocial personality traits. […] Patient C's conversation became more appropriate and consistent together with reported improvements in significant relationships. […] Patient 6E was an adult, diagnosed with communication disorder and major depression. […] Patient 6F was an adult with ASD. […] The patient's conversation became more appropriate and consistent and improvements in significant relationships were reported. A reduction in the reliance on alcohol to alleviate anxiety in social situations was observed. […] Sodium valproate was withdrawn and improvement was noted. […] Patient 6G was as adult, diagnosed in childhood with ASD. […] Sodium valproate was withdrawn. […] This has also been associated with improvements in reading and verbal understanding. These benefits have been sustained in some situations for three years. Although difficult to be objective, there seems to be good evidence of ongoing improvement. […] Improvements in coordination, in fine and gross motor control have been reported and improvement in gait which frequently is a significant issue for individuals with autistic disorders.

| Compound | behaviour, verbal and non-verbal communication |
| --- | --- |
| CCCC(CCC)C(=O)O.[Na] [sodium valproate, sodium di-n-propylacetic acid] | significant improvement in behaviour, verbal and non-verbal communication |

Same assay, conditions: Patient 6; 25 mg daily

| Compound | reintroduction at lower dose |
| --- | --- |
| CCCC(CCC)C(=O)O.[Na] [sodium valproate, sodium di-n-propylacetic acid] | successfully reintroduced |

Same assay, conditions: Patient 6; 50 mg daily

| Compound | adverse effects within three days |
| --- | --- |
| CCCC(CCC)C(=O)O.[Na] [sodium valproate, sodium di-n-propylacetic acid] | increasing cognitive slowing, general malaise and tiredness |

Same assay, conditions: Patient 6E, communication disorder and major depression; 50 mg

| Compound | communication |
| --- | --- |
| CCCC(CCC)C(=O)O.[Na] [sodium valproate, sodium di-n-propylacetic acid] | significant improvement in communication |

Same assay, conditions: Patient 6E; 25 mg daily

| Compound | communication |
| --- | --- |
| CCCC(CCC)C(=O)O.[Na] [sodium valproate, sodium di-n-propylacetic acid] | sustained improvement in the ability to communicate with less effort |

Same assay, conditions: Patient 6E; medication ceased

| Compound | benefits when medication ceased |
| --- | --- |
| CCCC(CCC)C(=O)O.[Na] [sodium valproate, sodium di-n-propylacetic acid] | initial benefits were lost |

Same assay, conditions: Patient 6G; 25 mg on alternate days

| Compound | communication, eye contact, motor tics, social engagement |
| --- | --- |
| CCCC(CCC)C(=O)O.[Na] [sodium valproate, sodium di-n-propylacetic acid] | sustained improvement in the communication, eye contact during dialogue, reduction in motor tics and greater social engagement and independently motivated activity |

Same assay, conditions: Patient 6G; 50 mg daily

| Compound | communication and other symptoms of ASD | side-effects |
| --- | --- | --- |
| CCCC(CCC)C(=O)O.[Na] [sodium valproate, sodium di-n-propylacetic acid] | improvement in communication and other symptoms of ASD | low mood and irritability |

Test system: mood stabilisation or epileptic symptoms or events
Assay: not given
Details: in vivo; cited from earlier work

| Compound | Minimum typical dose/day effective for mood stabilisation or treatment of epileptic symptoms or events [mg/kg daily] |
| --- | --- |
| CN1C(=O)CC(=O)N(c2ccccc2)c2cc(Cl)ccc21 [Clobazam] | 5 |

Same assay, conditions: per day; cited from earlier work

| Compound | Minimum typical dose/day effective for mood stabilisation or treatment of epileptic symptoms or events |
| --- | --- |
| CCC1(c2ccc(N)cc2)CCC(=O)NC1=O (stereo not shown) [Aminoglutethimide] | 125 mg |
| CCC1(c2ccccc2)C(=O)NC(=O)NC1=O.CNC(C)CC1CCCCC1 [Barbexaclone] | 200 mg in divided doses |
| CCC[C@@H]1CC(=O)N([C@@H](CC)C(N)=O)C1 [Brivaracetam] | 100 mg |
| NC(=O)N1c2ccccc2C=Cc2ccccc21 [Carbamazepine] | 400 mg |
| O=C1CN=C(c2ccccc2Cl)c2cc([N+](=O)[O-])ccc2N1 [Clonazepam] | 1 mg |
| CCN1C(=O)OC(C)(C)C1=O [Ethadione] | 1000 mg |
| CCC1(C)CC(=O)NC1=O (stereo not shown) [Ethosuximide] | 1000 mg |
| CCN1C(=O)NC(c2ccccc2)C1=O (stereo not shown) [Ethotoin] | 1000 mg |
| NC(=O)OCC(COC(N)=O)c1ccccc1 [Felbamate] | 1200 mg |
| O=C1NC(c2ccccc2)(c2ccccc2)C(=O)N1COP(=O)(O)O [Fosphenytoin Sodium] | 10 mg/kg |
| NCC1(CC(=O)O)CCCCC1 [Gabapentin, 2-[1-(aminomethyl)cyclohexyl]acetic acid] | 900 mg |
| COC[C@@H](NC(C)=O)C(=O)NCc1ccccc1 [Lacosamide] | 200 mg |
| Nc1nnc(-c2cccc(Cl)c2Cl)c(N)n1 [Lamotrigine, 3,5-diamino-6-(2,3-dichlorophenyl)-1,2,4-triazine] | 100 mg |
| CC[C@@H](C(N)=O)N1CCCC1=O [Levetiracetam] | 1000 mg |
| COC1=CC(=O)OC1C(O)c1ccccc1Cl (stereo not shown) [Losigamone] | 1500 mg |
| CCC1(c2ccccc2)NC(=O)N(C)C1=O (stereo not shown) [Mephenytoin] | 200 mg |

| Compound | Minimum typical dose/day effective for mood stabilisation or treatment of epileptic symptoms or events |
| --- | --- |
| CCC1(c2ccccc2)NC(=O)N(C)C1=O (stereo not shown) [Methoin] | 1000 mg |
| CN1C(=O)CC(C)(c2ccccc2)C1=O (stereo not shown) [Methsuximide] | 300 mg |
| NC(=O)N1c2ccccc2CC(=O)c2ccccc21 [Oxcarbazepine] | 600 mg |
| CCC1(C)OC(=O)N(C)C1=O (stereo not shown) [Paramethadione] | 300 mg |
| N#Cc1ccccc1-c1cc(-c2ccccn2)cn(-c2ccccc2)c1=O [Perampanel] | 2 mg |
| NC(=O)NC(=O)Cc1ccccc1 [Phenacemide] | 500 mg |
| CCC(C(=O)NC(N)=O)c1ccccc1 (stereo not shown) [Pheneturide] | 600 mg |
| CN1C(=O)CC(c2ccccc2)C1=O (stereo not shown) [Phensuximide] | 1000 mg |
| CC(C)C[C@H](CN)CC(=O)O [Pregabalin, (S)-3-(aminomethyl)-5-methylhexanoic acid] | 300 mg |
| CCC1(c2ccccc2)C(=O)NCNC1=O [Primidone] | 750 mg |
| NS(=O)(=O)c1ccc(N2CCCCS2(=O)=O)cc1 [Sultiame] | 200 mg |
| Cc1ccsc1C(=CCCN1CCC[C@@H](C(=O)O)C1)c1sccc1C [Tiagabine Hydrochloride] | 30 mg |
| CC1(C)O[C@@H]2[C@@H](CO[C@@]3(COS(N)(=O)=O)OC(C)(C)O[C@@H]23)O1 [Topiramate, 2,3:4,5-Bis-O-(1-methylethylidene)-beta-D-fructopyranose sulfamate] | 100 mg |
| CN1C(=O)OC(C)(C)C1=O [Trimethadione] | 900 mg |
| C=CC(N)CCC(=O)O (stereo not shown) [Vigabatrin] | 1000 mg |
| NS(=O)(=O)Cc1noc2ccccc12 [Zonisamide] | 200 mg |

Reference: US20140142140A1, “PHARMACEUTICAL COMPOSITION FOR NEUROLOGICAL DISORDERS” (priority 2011, published 2014)
